Test results as given in patent US20040087653A1, “Methods for the treatment of respiratory diseases and conditions with a selective iNOS inhibitor and a PDE inhibitor and compositions therefor” (priority 2002, published 2004).
Counter-ions that a name gives are not always drawn.

Key:
[1] = biological target: T1, human endothelial constitutive NOS (hecNOS) (Homo sapiens, UniProt P29474); experiment: Citrulline assay for nitric oxide synthase, hecNOS; format: biochemical; conditions: averages across all experiments and all lots; 30 μM L-arginine
T1 construct: made in house; host or cells: Sf9 insect cells, baculovirus vector
Text: Nitric oxide synthase (NOS) activity can be measured by monitoring the conversion of L-[2,3-^3H]-arginine to L-[2,3-^3H]-citrulline (Bredt and Snyder, Proc. Natl. Acad. Sci. U.S.A., 87, 682-685, 1990 and Moore et al, J. Med. Chem., 39, 669-672, 1996). Human inducible NOS (hiNOS), human endothelial constitutive_NOS (hecNOS) and human neuronal constitutive NOS (hncNOS) are each cloned from RNA extracted from human tissue. The cDNA for human inducible NOS (hiNOS) is isolated from a λcDNA library made from RNA extracted from a colon sample from a patient with ulcerative colitis. The cDNA for human endothelial constitutive NOS (hecNOS) is isolated from a λcDNA library made from RNA extracted from human umbilical vein endothelial cells (HUVEC) and the cDNA for human neuronal constitutive NOS (hncNOS) is isolated from a λcDNA library made from RNA extracted from human cerebellum obtained from a cadaver. The recombinant enzymes are expressed in Sf9 insect cells using a baculovirus vector (Rodi et al, in The Biology of Nitric Oxide, Pt. 4: Enzymology, Biochemistry and Immunology; Moncada, S., Feelisch, M., Busse, R., Higgs, E., Eds.; Portland Press Ltd.: London, 1995; pp 447-450). […] After mixing the resin is allowed to settle and L-[2,3-^3H]-Citrulline formation is determined by counting aliquots of the supernatant with a liquid scintillation counter. […]

[2] = tested on: exhaled breath nitric oxide (NO); experiment: Clinical study: exhaled breath NO after single oral dose; format: in vivo, human
Method: (§1) A single center study was performed at the National Heart and Lung Institute (NHLI) Clinical Studies Unit in London, UK. The clinical protocol was submitted and accepted by the Ethics Committee of the Royal Brompton Hospital Trust, and the study was carried out according to Good Clinical Practice standards. Each subject provided written informed consent.
(§2) Twenty-four, adult, healthy volunteers and 24 patients with mild asthma participated in this study. All subjects were lifelong non-smokers. Asthma patients (n=24) had mild asthma according to American Thoracic Society Criteria, with medication on an as required basis with inhaled albuterol only. […] All asthmatic patients had baseline exhaled breath NO levels of >15 parts per billion (ppb). Healthy control (n=24) subjects were matched for age and sex, and had no clinically significant disease. Healthy subjects were required to have baseline exhaled NO levels between 4 and 9 ppb.
(§3) The study included 2 panels of healthy volunteers and asthmatic patients who received in a double-blind, randomized manner, a single dose of oral compound NN or placebo. The study was carried out in two phases according to the dose of compound NN under investigation. The first panel consisted of patients with mild-to-moderate asthma (n=12) and healthy subjects (n=12) who received single doses of 20 mg of compound NN and placebo, while the second panel of mild-to-moderate asthmatics (n=12) and healthy subjects (n=12) received single doses of 200 mg of compound NN and placebo. No patient or subject participated in both panels of this study. Evaluation of the first panel was completed before moving on to the second panel. The study evaluated the tolerability and pharmacokinetics of orally-administered compound NN and monitored levels of exhaled breath NO.
Measurement of exhaled NO: Exhaled NO was measured using a chemoluminescence analyzer (Logan 2000, Rochester, UK) and methods in accordance with International Guidelines. The analyser was calibrated daily using a certified NO mixture of 50 to 200 ppb (BOC Special gases, Guildford, UK) and ambient air NO recordings made on an hourly basis. Subjects were asked to refrain from strenuous exercise before any measurement. Each subject was seated for at least 5 minutes before any measurement was taken and remained seated throughout the procedure. […] Two successive recordings were taken, and the average value was calculated.
Statistical methods for clinical data: Exhaled NO data, including change from baseline and the percentage change, were tested for normality using the Shapiro-Wilks test. […] The area under the curve (AUC) for the change from baseline and the percentage change, and the differences between active and placebo were calculated. […]

[3] = Clinical study: tolerability, FEV1, blood pressure, heart rate, laboratory parameters; format: in vivo, human; conditions: single oral dose
Method: as §1, §2, §3
Forced expiratory volume in 1 sec (FEV1) and heart rate data had no significant deviations from normality using the Shapiro-Wilks test, therefore parametric statistical methods were used, and the significance of the change from baseline was tested using a paired […]. […]

i-NOS = i-NOS (Homo sapiens, UniProt P35228); experiment: i-NOS inhibition, comparison with NIL amides
i-NOS, sequence (P35228 whole entry): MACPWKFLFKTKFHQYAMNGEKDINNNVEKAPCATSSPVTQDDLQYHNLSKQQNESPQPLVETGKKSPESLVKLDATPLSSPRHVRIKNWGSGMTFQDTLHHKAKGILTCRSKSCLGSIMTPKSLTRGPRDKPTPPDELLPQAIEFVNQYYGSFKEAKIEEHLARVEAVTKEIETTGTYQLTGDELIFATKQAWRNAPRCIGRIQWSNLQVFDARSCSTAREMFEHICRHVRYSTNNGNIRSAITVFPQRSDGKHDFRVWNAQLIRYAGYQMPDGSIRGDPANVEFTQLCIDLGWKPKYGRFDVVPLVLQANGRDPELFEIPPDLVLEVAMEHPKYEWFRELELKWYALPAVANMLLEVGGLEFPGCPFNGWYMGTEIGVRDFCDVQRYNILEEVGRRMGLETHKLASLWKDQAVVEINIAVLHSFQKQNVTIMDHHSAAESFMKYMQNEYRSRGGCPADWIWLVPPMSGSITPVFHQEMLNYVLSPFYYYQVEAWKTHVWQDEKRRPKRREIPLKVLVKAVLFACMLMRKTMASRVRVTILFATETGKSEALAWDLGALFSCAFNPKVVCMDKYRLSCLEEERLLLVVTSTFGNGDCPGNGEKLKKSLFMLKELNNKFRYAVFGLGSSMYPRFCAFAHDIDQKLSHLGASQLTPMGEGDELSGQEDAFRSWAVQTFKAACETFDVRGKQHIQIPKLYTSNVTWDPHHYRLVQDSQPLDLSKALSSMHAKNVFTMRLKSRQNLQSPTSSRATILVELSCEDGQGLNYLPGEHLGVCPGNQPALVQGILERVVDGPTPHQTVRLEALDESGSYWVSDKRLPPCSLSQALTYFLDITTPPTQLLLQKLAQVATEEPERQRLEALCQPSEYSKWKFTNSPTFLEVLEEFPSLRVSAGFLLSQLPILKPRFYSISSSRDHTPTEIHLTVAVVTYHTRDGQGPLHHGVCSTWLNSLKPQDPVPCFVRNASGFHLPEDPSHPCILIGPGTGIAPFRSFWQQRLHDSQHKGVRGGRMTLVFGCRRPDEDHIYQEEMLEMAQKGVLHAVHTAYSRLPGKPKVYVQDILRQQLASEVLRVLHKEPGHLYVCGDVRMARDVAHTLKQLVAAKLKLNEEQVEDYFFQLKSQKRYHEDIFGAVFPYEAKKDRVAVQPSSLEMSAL

[4] = healthy volunteers and asthmatics

## CC(=N)NCCCC[C@H](N)C(=O)Nc1nnn[nH]1 [Example NN, 2S-amino-6-[(1-iminoethyl)amino]-N-(1H-tetrazol-5-yl)hexanamide, hydrate, dihydrochloride]
[1]
  IC50: 2420 µM
[2]; 200 mg single oral dose
  inhibition of exhaled NO in asthma: 95%
[2]; [4]
  residual exhaled NO: < 1 ppb
[2]; single oral dose 20 mg or 200 mg, healthy volunteers and asthmatics, 72 hour assessment
  change in exhaled NO: rapid reduction in exhaled NO
[2]; single oral dose, healthy volunteers and asthmatics
  duration of the decrease in exhaled breath NO: 3 days
[3]
  effect on haematology or blood biochemistry: no effect
  effects on heart rate, blood pressure and FEV1: no apparent effects
[3]; [4]
  tolerability: well tolerated
i-NOS
  i-NOS inhibitory potency compared with NIL amide or NIL dimethylamide: more potent i-NOS inhibitor
